Measurements as given in US8247211B2, “Glycopeptide antibiotics” (American Cyanamid Company, priority 2001, dated 2012).
Converted amounts (≈) assume the structure as drawn.

Tests used:
Assay in all cases: In vitro antibacterial evaluation: minimum inhibitory concentration (MIC), broth dilution method
Format in all cases: cell-based
[1] = test system: Enterococcus sp.
Experimental: (§1) The minimum inhibitory concentration (MIC), the lowest concentration of the antibiotic which inhibits growth of the test organism, is determined by the broth dilution method using Muller-Hinton II […] (Baltimore Biological Laboratories) following the recommendations of the National Committee for Clinical Laboratory Standards [Methods for dilution antimicrobial susceptibility tests for bacteria that grow aerobically, approved standard M7-A2, National Committee for Clinical Laboratory Standards, Villanova, Pa].
(§2) An inoculum level of 5×10^5 CFU/mL, and a range of antibiotic concentrations (64-0.06 μg/mL) is used. […] The test organisms include a spectrum of Gram-positive bacteria comprised of Staphylococcus sp., Streptococcus sp. and Enterococcus sp. These organisms include recent clinical isolates that are resistant to methicillin, penicillin and/or vancomycin.

[2] = test system: Staphylococcus sp.; details: broth dilution, 18 hours at 35° C.
Experimental: as §1, §2

[3] = test system: Escherichia coli
Experimental: as §1, §2

[4] = test system: Streptococcus sp.
Experimental: as §1, §2

[5] = broth dilution, inoculum 5×10^5 CFU/mL, 18 hours at 35° C.

Structure (SMILES): CSc1ccc(C2OCC3OC(OC4C(CO)OC(Oc5ccc(CC6NC(=O)C(C(C)c7ccccc7)NC(=O)CNC(=O)C(CO)NC(=O)C(C(O)C7CNC(=N)N7C7OC(CO)C(O)C(O)C7O)NC(=O)C(C(O)C7CNC(=N)N7)NC6=O)cc5)C(O)C4O)C(O)C(O)C3O2)cc1[N+](=O)[O-] (stereo not drawn) [Example 168, Cyclo[glycyl-β-methylphenylalanyl-O-[4-O-[4,6-O-[4-(methylthio)-3-nitrobenzylidene]hexopyranosyl]hexopyranosyl]tyrosyl-3-(2-iminoimidazolidin-4-yl)seryl-3-(3-hexopyranosyl-2-iminoimidazolidin-4-yl)serylseryl]]
- MIC Enterococcus avium (GC 4558) [1, 5]: 2 µg/mL (≈ 1.36 µM)
- MIC Enterococcus faecalis (ATCC 29212) [1, 5]: 2 µg/mL (≈ 1.36 µM)
- MIC Enterococcus faecalis (GC 2242) [1, 5]: 2 µg/mL (≈ 1.36 µM)
- MIC Enterococcus faecalis (GC 2691) [1, 5]: 2 µg/mL (≈ 1.36 µM)
- MIC Enterococcus faecalis (GC 3059) [1, 5]: 2 µg/mL (≈ 1.36 µM)
- MIC Enterococcus faecalis (GC 4552) [1, 5]: 2 µg/mL (≈ 1.36 µM)
- MIC Enterococcus faecalis (GC 4553) [1, 5]: 2 µg/mL (≈ 1.36 µM)
- MIC Enterococcus faecalis (GC 4554) [1, 5]: 2 µg/mL (≈ 1.36 µM)
- MIC Enterococcus faecalis (GC 6189) [1, 5]: 2 µg/mL (≈ 1.36 µM)
- MIC Enterococcus faecium (GC 2243) [1, 5]: 2 µg/mL (≈ 1.36 µM)
- MIC Enterococcus faecium (GC 4556) [1, 5]: 2 µg/mL (≈ 1.36 µM)
- MIC Enterococcus faecium (GC 4557) [1, 5]: 1 µg/mL (≈ 0.678 µM)
- MIC Enterococcus faecalis (ATCC 29212) ([1]; strain ATCC 29212): 2 µg/mL (≈ 1.36 µM)
- MIC Enterococcus faecalis (GC 2242) ([1]; strain GC 2242): 2 µg/mL (≈ 1.36 µM)
- MIC Enterococcus faecium (GC 2243) ([1]; strain GC 2243): 2 µg/mL (≈ 1.36 µM)
- MIC Enterococcus faecalis (GC 2691) ([1]; strain GC 2691): 2 µg/mL (≈ 1.36 µM)
- MIC Enterococcus faecalis (GC 3059) ([1]; strain GC 3059): 2 µg/mL (≈ 1.36 µM)
- MIC Enterococcus faecalis (GC 4552) ([1]; strain GC 4552): 2 µg/mL (≈ 1.36 µM)
- MIC Enterococcus faecalis (GC 4553) ([1]; strain GC 4553): 2 µg/mL (≈ 1.36 µM)
- MIC Enterococcus faecalis (GC 4554) ([1]; strain GC 4554): 2 µg/mL (≈ 1.36 µM)
- MIC Enterococcus faecium (GC 4556) ([1]; strain GC 4556): 2 µg/mL (≈ 1.36 µM)
- MIC Enterococcus faecium (GC 4557) ([1]; strain GC 4557): 1 µg/mL (≈ 0.678 µM)
- MIC Enterococcus avium (GC 4558) ([1]; strain GC 4558): 2 µg/mL (≈ 1.36 µM)
- MIC Enterococcus faecalis (GC 6189) ([1]; strain GC 6189): 2 µg/mL (≈ 1.36 µM)
- MIC Coagulase Negative Staphylococcus (GC 4547) ([2]; 5×10^5 CFU/mL): 2 µg/mL (≈ 1.36 µM)
- MIC Coagulase Negative Staphylococcus (GC 4548) ([2]; 5×10^5 CFU/mL): 0.5 µg/mL (≈ 0.339 µM)
- MIC Coagulase Negative Staphylococcus (GC 4549) ([2]; 5×10^5 CFU/mL): 0.5 µg/mL (≈ 0.339 µM)
- MIC Coagulase Negative Staphylococcus (GC 4551) ([2]; 5×10^5 CFU/mL): 1 µg/mL (≈ 0.678 µM)
- MIC Staphylococcus aureus (ATCC 29213) ([2]; 5×10^5 CFU/mL): 1 µg/mL (≈ 0.678 µM)
- MIC Staphylococcus aureus (GC 1131) ([2]; 5×10^5 CFU/mL): 1 µg/mL (≈ 0.678 µM)
- MIC Staphylococcus aureus (GC 3051) ([2]; 5×10^5 CFU/mL): 1 µg/mL (≈ 0.678 µM)
- MIC Staphylococcus aureus (GC 3053) ([2]; 5×10^5 CFU/mL): 1 µg/mL (≈ 0.678 µM)
- MIC Staphylococcus aureus (GC 4541) ([2]; 5×10^5 CFU/mL): 1 µg/mL (≈ 0.678 µM)
- MIC Staphylococcus aureus (GC 4542) ([2]; 5×10^5 CFU/mL): 1 µg/mL (≈ 0.678 µM)
- MIC Staphylococcus aureus (GC 4544) ([2]; 5×10^5 CFU/mL): 2 µg/mL (≈ 1.36 µM)
- MIC Staphylococcus aureus (GC 4545) ([2]; 5×10^5 CFU/mL): 1 µg/mL (≈ 0.678 µM)
- MIC Staphylococcus aureus-SMITH (GC 4543) ([2]; 5×10^5 CFU/mL): 1 µg/mL (≈ 0.678 µM)
- MIC Staphylococcus haemolyticus (GC 4546) ([2]; 5×10^5 CFU/mL): 0.5 µg/mL (≈ 0.339 µM)
- MIC Staphylococcus aureus (ATCC 29213) ([2]; strain ATCC 29213): 1 µg/mL (≈ 0.678 µM)
- MIC Staphylococcus aureus (GC 1131) ([2]; strain GC 1131): 1 µg/mL (≈ 0.678 µM)
- MIC Staphylococcus aureus (GC 3051) ([2]; strain GC 3051): 1 µg/mL (≈ 0.678 µM)
- MIC Staphylococcus aureus (GC 3053) ([2]; strain GC 3053): 1 µg/mL (≈ 0.678 µM)
- MIC Staphylococcus aureus (GC 4541) ([2]; strain GC 4541): 1 µg/mL (≈ 0.678 µM)
- MIC Staphylococcus aureus (GC 4542) ([2]; strain GC 4542): 1 µg/mL (≈ 0.678 µM)
- MIC Staphylococcus aureus (GC 4544) ([2]; strain GC 4544): 2 µg/mL (≈ 1.36 µM)
- MIC Staphylococcus aureus (GC 4545) ([2]; strain GC 4545): 1 µg/mL (≈ 0.678 µM)
- MIC Escherichia coli (ATCC 25922) ([3]; strain ATCC 25922): 64 µg/mL (≈ 43.4 µM)
- MIC Escherichia coli (GC 4559) ([3]; strain GC 4559): 16 µg/mL (≈ 10.9 µM)
- MIC Escherichi coli (GC 4560) ([3]; strain GC 4560): 0.5 µg/mL (≈ 0.339 µM)
- MIC Streptococcus agalactiae (GC 4564) [4, 5]: <0.12 µg/mL
- MIC Streptococcus pneumoniae (ATCC 6301) [4, 5]: <0.12 µg/mL
- MIC Streptococcus pneumoniae (GC 1894) [4, 5]: <0.12 µg/mL
- MIC Streptococcus pneumoniae (GC 4565) [4, 5]: <0.12 µg/mL
- MIC Streptococcus pyogenes (GC 4563) [4, 5]: 0.5 µg/mL (≈ 0.339 µM)
- MIC Streptococcus pneumoniae (ATCC 6301) ([4]; strain ATCC 6301): <0.12 µg/mL
- MIC Streptococcus pneumoniae (GC 1894) ([4]; strain GC 1894): <0.12 µg/mL
- MIC Streptococcus pyogenes (GC 4563) ([4]; strain GC 4563): 0.5 µg/mL (≈ 0.339 µM)
- MIC Streptococcus agalactiae (GC 4564) ([4]; strain GC 4564): <0.12 µg/mL
- MIC Streptococcus pneumoniae (GC 4565) ([4]; strain GC 4565): <0.12 µg/mL
